According to PMC12817916, “A small-molecule HSP90 inhibitor, NVP-HSP990, alleviates rotavirus infection” (Journal of Virology, 2025):

Tests used:
RV VP2, VP6, NSP4, NSP5 = assay: RV gene transcription and antigen expression in Caco-2 cells (qPCR, WB, IFA); assay type: cell-based, Rotavirus; details: RV-infected Caco-2 cells, 18 h
Method: (§1) Caco-2 cells growing on coverslips were mock-infected with PBS or infected with RV Wa or SA11 strains (MOI = 1), then the cells were cultivated with DMEM containing 100 nM NVP-HSP990 or an equal volume of DMSO as a control for another 18 h after infection. The cells were then washed with PBS, fixed in 4% paraformaldehyde for 20 min, followed by permeabilization in 0.5% Triton X-100 for 10 min and blocking with 5% BSA (Beyotime, China) for 1 h at room temperature. The cells were then incubated with rabbit anti-ZO-1 monoclonal antibody (CST, USA) (1:100) or rabbit anti-RV VP6 polyclonal antibodies (CUSABIO, China) (1:50) for 2 h at room temperature, washed twice with PBS, and incubated with Cy3-conjugated goat anti-rabbit antibodies (Beyotime, China) (1:500) for 1 h at room temperature. In some experiments, the cells were also stained with FITC-conjugated goat anti-RV antibodies (Virostat, USA) (1:100) for 1 h at room temperature and followed by 5 µg/mL 2-(4-amidinophenyl)-6-indolecarbamidine dihydrochloride (DAPI) (Sigma-Aldrich, USA) staining for 10 min. The triple-stained cells were washed twice with PBS and mounted in Prolong Gold Antifade Reagent (CST, USA). Microscopic images were acquired with an EVOS M5000 system (Thermo Fisher Scientific, USA) using the built-in Celleste software (v.6.0). […] Minimal post-processing (image cropping and annotations) was applied through Adobe Illustrator 2019 (Adobe Systems, USA) to ensure readability. […]
(§2) MA104, Caco-2, and HT-29 cells were mock-infected with PBS, infected with RV Wa or SA11 strains (MOI = 3), or treated with 1 µM C16-PAF (C16) for 1 h. […] After protein quantification with a BCA kit (Beyotime, China), the protein samples were mixed with 25 µL 5× SDS loading buffer (Beyotime, China), boiled at 100°C for 5 min, chilled on ice, vortexed for seconds, and centrifuged at 12,000 × g for 3 min at room temperature. […]
(A) Caco-2 cells were infected with RV (Wa or SA11 strains) at varying MOIs (0.001–10), followed by treatment with 100 nM NVP-HSP990 or an equal volume of DMSO (as a control) for 24 h. Viral replication was assessed using PFA. […]

[1] = system: tight junctions (ZO-1, ZO-2, claudin-1) in Caco-2 cells; assay: Tight junction-associated proteins and structure (WB, IFA); assay type: cell-based, Human; details: Wa or SA11 MOI = 3, 100 nM
Method: as §1, with “The” for “Caco-2 cells growing on coverslips were mock-infected with PBS or infected with RV Wa or SA11 strains (MOI = 1), then the cells were cultivated with DMEM containing 100 nM NVP-HSP990 or an equal volume of DMSO as a control for another 18 h after infection. The”, “min.” for “min. The triple-stained cells were washed twice with PBS and mounted in Prolong Gold Antifade Reagent (CST, USA). Microscopic images were acquired with an EVOS M5000 system (Thermo Fisher Scientific, USA) using the built-in Celleste software (v.6.0).”
as §2

## COc1cccc(-c2cc(F)ccc2[C@H]2Cc3nc(N)nc(C)c3C(=O)N2)n1 [NVP-HSP990]
RV VP2, VP6, NSP4, NSP5; 100 nM
  RV VP6 expression (IFA): potent inhibition
RV VP2, VP6, NSP4, NSP5; MOI = 1, 100 nM
  RNA synthesis of RV proteins VP2, VP6, NSP4, and NSP5 (qPCR): significant reduction
  RV structural protein VP6 (WB): remarkably reduced
[1]; 18 h, ZO-1 immunostaining
  structural disruption of tight junctions in RV infection: effectively restored
[1]; 20 h, WB
  expression of tight junction-associated proteins ZO-1, ZO-2, and claudin-1: facilitated the expression
